How the values were obtained:
Assay type in all cases: cell-based
[1] = test system: SNU-16 (FGFR2-amplification) cells; assay: cell proliferation assay (CellTiterGlo), SNU-16 cells; conditions: 72 hours
Description: (§1) In some embodiments, the biological assay assess the ability of the compounds to inhibit cell proliferation.
(§2) In some embodiments, cells (e.g., SNU-16 (FGFR2-amplification) cells) may be suspended and dispensed in plates. In some embodiments, cells (e.g., UM-UC-14 (FGFR3-S249C) cells) may be suspended and dispensed in plates. In some embodiments, cells (e.g., DMS-114 (FGFR1 overexpression) cells) may by suspended and dispensed in plates. In some embodiments, cells (e.g., RT-112 (FGFR3-Tacc3 fusion) cells) may be suspended and dispensed in plates. In some embodiments, to determine the effect of the compounds of the present disclosure on cell proliferation, cells (e.g., SNU-16, UM-UC-14, DMS-114 and […] cells) may be incubated in the presence of vehicle control (e.g., DMSO) or a compound of the present disclosure at varying concentrations and the inhibition of cell growth may be determined by luminescent quantification (e.g., of intracellular ATP content using CellTiterGlo), according to the manufacturers protocol. In some embodiments, to determine the IC50 values, the vehicle-treated cells were normalized as viable cells and the growth was analyzed using a software (e.g., the CDD Vault software (Collaborative Drug Discovery, Burlingame, CA)).

[2] = test system: UM-UC-14 (FGFR3-S249C) cells; assay: cell proliferation assay (CellTiterGlo), UM-UC-14 cells
Description: as §1, §2

[3] = test system: DMS-114 (FGFR1 overexpression) cells; assay: cell proliferation assay (CellTiterGlo), DMS-114 cells
Description: as §1, §2

[4] = test system: RT-112 (FGFR3-Tacc3 fusion) cells; assay: cell proliferation assay (CellTiterGlo), RT-112 cells; conditions: 72 hours
Description: as §1, §2

[5] = Homo sapiens, RT-112, RT112 cells

Row | SMILES | IC50 ([1]; Homo sapiens) [µM] | IC50 [1] [µM] | IC50 ([2]; UMUC14, 72 h) [µM] | IC50 ([3]; Homo sapiens, DMS-114, 72 h) [µM] | IC50 [4, 5] [µM] | IC50 ([3]; 72 hours) [µM] | IC50 ([2]; 72 hours) [µM] | IC50 ([4]; RT112 cells) [µM]
1 | Cc1nc2ccc(Oc3ccc4ncc(-c5cnn(CC6CC(F)(F)C6)c5)nc4c3N3CCOC3=O)c(F)c2[nH]1 [Compound 95] | 0.1 to 0.4 | – | ≥ 0.4 | ≥ 0.4 | 0.1 to 0.4 | – | – | –
2 | Cc1nc2ccc(Oc3ccc4ncc(-c5cnn(CC6CC(F)(F)C6)c5)nc4c3C3COC3)cc2[nH]1 [Compound 97] | 0.02 to 0.1 | – | 0.1 to 0.4 | ≥ 0.4 | 0.1 to 0.4 | – | – | –
3 | CC(=O)NC1(Cn2cc(-c3cnc4ccc(Oc5ccc6nc(C)[nH]c6c5)c(Cl)c4n3)cn2)CC1 [Compound 98] | 0.1 to 0.4 | – | ≥ 0.4 | ≥ 0.4 | 0.1 to 0.4 | – | – | –
4 | Cc1nc2ccc(Oc3ccc4ncc(-c5cnn(CC6(NS(C)(=O)=O)CC6)c5)nc4c3Cl)cc2[nH]1 [Compound 99] | 0.1 to 0.4 | – | ≥ 0.4 | ≥ 0.4 | 0.1 to 0.4 | – | – | –
5 | Cc1nc2ccc(Oc3ccc4ncc(-c5cnn(CC6CC(F)(F)C6)c5)nc4c3C3=CCOCC3)cc2[nH]1 [Compound 100] | 0.02 to 0.1 | – | 0.02 to 0.1 | 0.1 to 0.4 | < 0.02 | – | – | –
6 | COC1(Cn2cc(-c3cnc4ccc(Oc5ccc6nc(C)[nH]c6c5)c(Cl)c4n3)cn2)CC1 [Compound 110] | 0.02 to 0.1 | – | 0.02 to 0.1 | ≥ 0.4 | 0.02 to 0.1 | – | – | –
7 | Cc1nc2ccc(Oc3ccc4ncc(-c5cnn(Cc6nnc(C)o6)c5)nc4c3Cl)cc2[nH]1 [Compound 111] | 0.02 to 0.1 | – | 0.02 to 0.1 | ≥ 0.4 | 0.02 to 0.1 | – | – | –
8 | Cc1nc2ccc(Oc3ccc4ncc(-c5cnn(C(C)(C)C(=O)O)c5)nc4c3Cl)c(F)c2[nH]1 [Compound 115] | ≥ 0.4 | – | ≥ 0.4 | ≥ 0.4 | ≥ 0.4 | – | – | –
9 | Cc1nc2ccc(Oc3ccc4ncc(-c5cnn(C[C@H](C)O)c5)nc4c3Cl)cc2[nH]1 [Compound 119] | 0.02 to 0.1 | – | < 0.02 | 0.1 to 0.4 | 0.02 to 0.1 | – | – | –
10 | Cc1nc2ccc(Oc3ccc4ncc(-c5cnn(C6CCN(CC(F)(F)F)C7(CC7)C6)c5)nc4c3Cl)c(F)c2[nH]1 (stereo not drawn) [Compound 121] | 0.02 to 0.1 | – | 0.02 to 0.1 | ≥ 0.4 | 0.02 to 0.1 | – | – | –
11 | Cc1nc2ccc(Oc3ccc4ncc(-c5cnn(CC(C)(O)C(F)(F)F)c5)nc4c3Cl)c(F)c2[nH]1 (stereo not drawn) [Compound 122] | 0.02 to 0.1 | – | 0.02 to 0.1 | ≥ 0.4 | 0.02 to 0.1 | – | – | –
12 | Cc1nc2ccc(Oc3ccc4ncc(-c5cnn([C@H]6CC7(C[C@@H](O)C7)C6)c5)nc4c3Cl)cc2[nH]1 (stereo partly drawn) [Compound 123] | 0.02 to 0.1 | – | < 0.02 | – | 0.02 to 0.1 | 0.1 to 0.4 | – | –
13 | Cc1nc2ccc(Oc3ccc4ncc(-c5cnn([C@H]6CC7(C[C@@H](O)C7)C6)c5)nc4c3Cl)cc2[nH]1 (stereo partly drawn) [Compound 124] | – | 0.02 to 0.1 | – | – | – | ≥ 0.4 | 0.02 to 0.1 | 0.02 to 0.1
14 | Cc1nc2ccc(Oc3ccc4ncc(-c5cnn([C@H](C)CO)c5)nc4c3Cl)cc2[nH]1 [Compound 126] | 0.02 to 0.1 | – | 0.02 to 0.1 | 0.1 to 0.4 | 0.02 to 0.1 | – | – | –
15 | Cc1nc2ccc(Oc3ccc4ncc(-c5cnn([C@H]6CC7(C[C@@H](O)C7)C6)c5)nc4c3Cl)c(F)c2[nH]1 (stereo partly drawn) [Compound 128] | – | < 0.02 | – | – | – | 0.1 to 0.4 | < 0.02 | < 0.02
16 | Cc1nc2ccc(Oc3ccc4ncc(-c5cnn(CC6(O)CCC6)c5)nc4c3Cl)c(F)c2[nH]1 [Compound 140] | 0.02 to 0.1 | – | 0.02 to 0.1 | ≥ 0.4 | 0.02 to 0.1 | – | – | –
17 | Cc1nc2ccc(Oc3ccc4ncc(-c5cnn(C(=O)OC(C)C)c5)nc4c3Cl)c(F)c2[nH]1 [Compound 141] | 0.02 to 0.1 | – | 0.1 to 0.4 | ≥ 0.4 | 0.1 to 0.4 | – | – | –
18 | Cc1nc2ccc(Oc3ccc4ncc(-c5cnn([C@H]6C[C@H](O)C6)c5)nc4c3Cl)c(F)c2[nH]1 [Compound 143] | 0.1 to 0.4 | – | ≥ 0.4 | ≥ 0.4 | 0.1 to 0.4 | – | – | –
19 | Cc1nc2ccc(Oc3ccc4ncc(-c5cnn(CC(O)C(F)(F)F)c5)nc4c3Cl)c(F)c2[nH]1 (stereo not drawn) [Compound 144] | 0.02 to 0.1 | – | ≥ 0.4 | ≥ 0.4 | 0.1 to 0.4 | – | – | –
20 | Cc1nc2ccc(Oc3ccc4ncc(-c5cnn(Cc6ncc7n6CCOC7)c5)nc4c3Cl)c(F)c2[nH]1 [Compound 145] | 0.02 to 0.1 | – | ≥ 0.4 | ≥ 0.4 | 0.1 to 0.4 | – | – | –
21 | Cc1nc2ccc(Oc3ccc4ncc(-c5cnn(CC6(O)CCC6)c5)nc4c3Cl)cc2[nH]1 [Compound 146] | 0.02 to 0.1 | – | 0.02 to 0.1 | ≥ 0.4 | 0.02 to 0.1 | – | – | –
22 | Cc1nc2ccc(Oc3ccc4ncc(-c5cnn(C(C)(C)C6CC(F)(F)C6)c5)nc4c3Cl)cc2[nH]1 [Compound 147] | 0.1 to 0.4 | – | 0.1 to 0.4 | ≥ 0.4 | 0.02 to 0.1 | – | – | –

More lines, main results first:

Row | IC50 ([1]; Homo sapiens) [µM] | IC50 [1] [µM] | SMILES | IC50 ([2]; UMUC14, 72 h) [µM] | IC50 ([3]; Homo sapiens, DMS-114, 72 h) [µM] | IC50 [4, 5] [µM] | IC50 ([3]; 72 hours) [µM] | IC50 ([2]; 72 hours) [µM] | IC50 ([4]; RT112 cells) [µM]
23 | < 0.02 | – | Cc1nc2ccc(Oc3ccc4ncc(-c5cnn([C@@H](C)CO)c5)nc4c3Cl)c(F)c2[nH]1 [Compound 106] | < 0.02 | 0.1 to 0.4 | < 0.02 | – | – | –
24 | < 0.02 | – | Cc1nc2ccc(Oc3ccc4ncc(-c5cnn([C@H](C)CO)c5)nc4c3Cl)c(F)c2[nH]1 [Compound 107] | < 0.02 | 0.1 to 0.4 | < 0.02 | – | – | –
25 | < 0.02 | – | Cc1nc2ccc(Oc3ccc4ncc(-c5cnn([C@@H](C)C6CC(F)(F)C6)c5)nc4c3Cl)c(F)c2[nH]1 [Compound 108] | 0.02 to 0.1 | 0.1 to 0.4 | 0.02 to 0.1 | – | – | –
26 | < 0.02 | – | Cc1nc2ccc(Oc3ccc4ncc(-c5cnn([C@H](C)C6CC(F)(F)C6)c5)nc4c3Cl)c(F)c2[nH]1 [Compound 109] | < 0.02 | 0.1 to 0.4 | < 0.02 | – | – | –
27 | < 0.02 | – | COC(=O)C(C)(C)n1cc(-c2cnc3ccc(Oc4ccc5nc(C)[nH]c5c4F)c(Cl)c3n2)cn1 [Compound 112] | < 0.02 | 0.1 to 0.4 | 0.02 to 0.1 | – | – | –
28 | < 0.02 | – | Cc1nc2ccc(Oc3ccc4ncc(-c5cnn([C@H]6CC7(C[C@@H](O)C7)C6)c5)nc4c3Cl)c(F)c2[nH]1 (stereo partly drawn) [Compound 127] | < 0.02 | 0.1 to 0.4 | < 0.02 | – | – | –
29 | < 0.02 | – | Cc1nc2ccc(Oc3ccc4ncc(-c5cnn(C[C@@H](C)O)c5)nc4c3Cl)c(F)c2[nH]1 [Compound 130] | < 0.02 | 0.1 to 0.4 | < 0.02 | – | – | –
30 | < 0.02 | – | Cc1nc2ccc(Oc3ccc4ncc(-c5cnn(CC(C)(C)O)c5)nc4c3Cl)c(F)c2[nH]1 [Compound 131] | < 0.02 | 0.1 to 0.4 | < 0.02 | – | – | –
31 | < 0.02 | – | Cc1nc2ccc(Oc3ccc4ncc(-c5cnn(C6CCNC7(CC7)C6)c5)nc4c3Cl)c(F)c2[nH]1 (stereo not drawn) [Compound 139] | 0.02 to 0.1 | 0.02 to 0.1 | < 0.02 | – | – | –
32 | < 0.02 | – | Cc1nc2ccc(Oc3ccc4ncc(-c5cnn([C@H]6C[C@@H](O)C6)c5)nc4c3Cl)c(F)c2[nH]1 [Compound 148] | < 0.02 | 0.02 to 0.1 | < 0.02 | – | – | –
33 | < 0.02 | – | Cc1nc2ccc(Oc3ccc4ncc(-c5cnn([C@H]6C[C@](C)(O)C6)c5)nc4c3Cl)c(F)c2[nH]1 [Compound 149] | < 0.02 | 0.1 to 0.4 | < 0.02 | – | – | –
